# Patent publication US10167262B2, “Herbicidal substituted 3-arylpyrazoles” (FMC CORPORATION, priority 2014, dated 2019)
# Key:
# Assay in all cases: Test E pre-/postemergence greenhouse test, plant response rating 0-100
# Type in all cases: in vivo
# [1] = system: dayflower (Virginia (VA) dayflower, Commelina virginica); conditions: scale 0 to 100; for Dayflower, VA plant response rating: Preemergence
# Outline: (§1)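 Seeds sown in silt loam soil received preemergence treatment with compound in a non-phytotoxic solvent mixture containing surfactant. Postemergence, plants at 2–18 cm (1- to 4-leaf stage) in peat/vermiculite medium were sprayed with the same formulation. Visual injury versus untreated controls was rated 0–100 after 14 to 21 days in the greenhouse.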
# [2] = system: sandbur (southern sandbur, Cenchrus echinatus); conditions: scale 0 to 100; for Sandbur plant response rating: Preemergence
# Outline: as §1
# [3] = system: Brazilian crabgrass (Digitaria horizontalis); conditions: Digitaria horizontalis, post-emergence, Postemergence, scale 0 to 100, read-out: Plant response rating, Crabgrass, Brazil
# Outline: as §1
# [4] = system: wild poinsettia (Euphorbia heterophylla); conditions: scale 0 to 100; for Poinsettia, Wild plant response rating: Preemergence
# Outline: as §1
# [5] = system: field bindweed (Convolvulus arvensis); conditions: scale 0 to 100; for Field Bindweed plant response rating: Preemergence
# Outline: as §1
# [6] = system: hairy beggarticks (Bidens pilosa); conditions: scale 0 to 100; for Beggarticks plant response rating: Preemergence
# Outline: as §1
# [7] = system: waterhemp (common waterhemp, Amaranthus rudis); conditions: scale 0 to 100; for Waterhemp plant response rating: Preemergence
# Outline: as §1
# corn (Zea mays) = conditions: scale 0 to 100; for Corn plant response rating: Preemergence
# Outline: as §1
# [8] = system: fall panicum (Panicum dichotomiflorum); conditions: scale 0 to 100; for Panicum, Fall plant response rating: Preemergence
# Outline: as §1
# [9] = system: arrowleaf sida (Sida rhombifolia); conditions: for Arrowleaf Sida plant response rating: Preemergence
# Outline: as §1
# soybean (Glycine max) = conditions: scale 0 to 100; for Soybean plant response rating: Preemergence
# Outline: as §1
# [10] = system: palmer pigweed (Amaranthus palmeri); conditions: scale 0 to 100; for Pigweed, Palmer plant response rating: Preemergence
# Outline: as §1
smiles,measurement,setting,value
"COCC(=O)n1cc(C(=O)c2ccccc2)c(-c2cc(Cl)cc(Cl)c2)n1 [Compound 16, 1-[4-benzoyl-3-(3,5-dichlorophenyl)-1H-pyrazol-1-yl]-2-methoxyethanone]",pest or weed control at 31 g/ha,"[1]; Commelina virginica, post-emergence, Postemergence, 31 g ai/ha",0%
same,pest or weed control at 62 g/ha,"[1]; Commelina virginica, post-emergence, Postemergence, 62 g ai/ha",0%
same,pest or weed control at 125 g/ha,"[1]; Commelina virginica, post-emergence, Postemergence, 125 g ai/ha",0%
same,pest or weed control at 250 g/ha,"[1]; Commelina virginica, post-emergence, Postemergence, 250 g ai/ha",0%
same,pest or weed control at 500 g/ha,"[1]; Commelina virginica, post-emergence, Postemergence, 500 g ai/ha",0%
same,"Dayflower, VA plant response rating",[1]; 31 g ai/ha,0
same,"Dayflower, VA plant response rating",[1]; 62 g ai/ha,0
same,"Dayflower, VA plant response rating",[1]; 125 g ai/ha,0
same,"Dayflower, VA plant response rating",[1]; 250 g ai/ha,0
same,"Dayflower, VA plant response rating",[1]; 500 g ai/ha,0
same,pest or weed control at 31 g/ha,"[2]; Cenchrus echinatus, post-emergence, Postemergence, 31 g ai/ha",0%
same,pest or weed control at 62 g/ha,"[2]; Cenchrus echinatus, post-emergence, Postemergence, 62 g ai/ha",0%
same,pest or weed control at 125 g/ha,"[2]; Cenchrus echinatus, post-emergence, Postemergence, 125 g ai/ha",0%
same,pest or weed control at 250 g/ha,"[2]; Cenchrus echinatus, post-emergence, Postemergence, 250 g ai/ha",0%
same,pest or weed control at 500 g/ha,"[2]; Cenchrus echinatus, post-emergence, Postemergence, 500 g ai/ha",0%
same,Sandbur plant response rating,[2]; 31 g ai/ha,0
same,Sandbur plant response rating,[2]; 62 g ai/ha,0
same,Sandbur plant response rating,[2]; 125 g ai/ha,0
same,Sandbur plant response rating,[2]; 250 g ai/ha,0
same,Sandbur plant response rating,[2]; 500 g ai/ha,0
same,pest or weed control at 31 g/ha,[3]; 31 g ai/ha,0%
same,pest or weed control at 62 g/ha,[3]; 62 g ai/ha,0%
same,pest or weed control at 125 g/ha,[3]; 125 g ai/ha,0%
same,pest or weed control at 250 g/ha,[3]; 250 g ai/ha,0%
same,pest or weed control at 500 g/ha,[3]; 500 g ai/ha,0%
same,pest or weed control at 31 g/ha,"[4]; Euphorbia heterophylla, post-emergence, Postemergence, 31 g ai/ha, read-out: Plant response rating, Poinsettia, Wild",0%
same,pest or weed control at 62 g/ha,"[4]; Euphorbia heterophylla, post-emergence, Postemergence, 62 g ai/ha, read-out: Plant response rating, Poinsettia, Wild",0%
same,pest or weed control at 125 g/ha,"[4]; Euphorbia heterophylla, post-emergence, Postemergence, 125 g ai/ha, read-out: Plant response rating, Poinsettia, Wild",0%
same,pest or weed control at 250 g/ha,"[4]; Euphorbia heterophylla, post-emergence, Postemergence, 250 g ai/ha, read-out: Plant response rating, Poinsettia, Wild",0%
same,pest or weed control at 500 g/ha,"[4]; Euphorbia heterophylla, post-emergence, Postemergence, 500 g ai/ha, read-out: Plant response rating, Poinsettia, Wild",0%
same,"Poinsettia, Wild plant response rating",[4]; 31 g ai/ha,0
same,"Poinsettia, Wild plant response rating",[4]; 62 g ai/ha,0
same,"Poinsettia, Wild plant response rating",[4]; 125 g ai/ha,0
same,"Poinsettia, Wild plant response rating",[4]; 250 g ai/ha,0
same,"Poinsettia, Wild plant response rating",[4]; 500 g ai/ha,0
same,pest or weed control at 31 g/ha,"[5]; Convolvulus arvensis, post-emergence, Postemergence, 31 g ai/ha",0%
same,pest or weed control at 62 g/ha,"[5]; Convolvulus arvensis, post-emergence, Postemergence, 62 g ai/ha",0%
same,pest or weed control at 125 g/ha,"[5]; Convolvulus arvensis, post-emergence, Postemergence, 125 g ai/ha",0%
same,pest or weed control at 250 g/ha,"[5]; Convolvulus arvensis, post-emergence, Postemergence, 250 g ai/ha",0%
same,pest or weed control at 500 g/ha,"[5]; Convolvulus arvensis, post-emergence, Postemergence, 500 g ai/ha",0%
same,Field Bindweed plant response rating,[5]; 31 g ai/ha,0
same,Field Bindweed plant response rating,[5]; 62 g ai/ha,0
same,Field Bindweed plant response rating,[5]; 125 g ai/ha,0
same,Field Bindweed plant response rating,[5]; 250 g ai/ha,0
same,Field Bindweed plant response rating,[5]; 500 g ai/ha,30
same,pest or weed control at 31 g/ha,"[6]; Bidens pilosa, post-emergence, Postemergence, 31 g ai/ha",95%
same,pest or weed control at 62 g/ha,"[6]; Bidens pilosa, post-emergence, Postemergence, 62 g ai/ha",100%
same,pest or weed control at 125 g/ha,"[6]; Bidens pilosa, post-emergence, Postemergence, 125 g ai/ha",98%
same,pest or weed control at 250 g/ha,"[6]; Bidens pilosa, post-emergence, Postemergence, 250 g ai/ha",98%
same,pest or weed control at 500 g/ha,"[6]; Bidens pilosa, post-emergence, Postemergence, 500 g ai/ha",98%
same,Beggarticks plant response rating,[6]; 31 g ai/ha,0
same,Beggarticks plant response rating,[6]; 62 g ai/ha,0
same,Beggarticks plant response rating,[6]; 125 g ai/ha,25
same,Beggarticks plant response rating,[6]; 250 g ai/ha,50
same,Beggarticks plant response rating,[6]; 500 g ai/ha,65
same,pest or weed control at 31 g/ha,"[7]; Amaranthus tuberculatus, post-emergence, Postemergence, 31 g ai/ha",95%
same,pest or weed control at 62 g/ha,"[7]; Amaranthus tuberculatus, post-emergence, Postemergence, 62 g ai/ha",98%
same,pest or weed control at 125 g/ha,"[7]; Amaranthus tuberculatus, post-emergence, Postemergence, 125 g ai/ha",98%
same,pest or weed control at 250 g/ha,"[7]; Amaranthus tuberculatus, post-emergence, Postemergence, 250 g ai/ha",98%
same,pest or weed control at 500 g/ha,"[7]; Amaranthus tuberculatus, post-emergence, Postemergence, 500 g ai/ha",100%
same,Waterhemp plant response rating,[7]; 31 g ai/ha,0
same,Waterhemp plant response rating,[7]; 62 g ai/ha,30
same,Waterhemp plant response rating,[7]; 125 g ai/ha,70
same,Waterhemp plant response rating,[7]; 250 g ai/ha,100
same,Waterhemp plant response rating,[7]; 500 g ai/ha,100
same,Corn plant response rating,corn (Zea mays); 31 g ai/ha,0
same,Corn plant response rating,corn (Zea mays); 62 g ai/ha,0
same,Corn plant response rating,corn (Zea mays); 125 g ai/ha,0
same,Corn plant response rating,corn (Zea mays); 250 g ai/ha,0
same,Corn plant response rating,corn (Zea mays); 500 g ai/ha,0
same,"Corn plant response rating (crop injury, 0 = no effect, 100 = complete kill) at 31 g/ha","corn (Zea mays); Zea mays, post-emergence, Postemergence, 31 g ai/ha",0%
same,"Corn plant response rating (crop injury, 0 = no effect, 100 = complete kill) at 62 g/ha","corn (Zea mays); Zea mays, post-emergence, Postemergence, 62 g ai/ha",0%
same,"Corn plant response rating (crop injury, 0 = no effect, 100 = complete kill) at 125 g/ha","corn (Zea mays); Zea mays, post-emergence, Postemergence, 125 g ai/ha",0%
same,"Corn plant response rating (crop injury, 0 = no effect, 100 = complete kill) at 250 g/ha","corn (Zea mays); Zea mays, post-emergence, Postemergence, 250 g ai/ha",0%
same,"Corn plant response rating (crop injury, 0 = no effect, 100 = complete kill) at 500 g/ha","corn (Zea mays); Zea mays, post-emergence, Postemergence, 500 g ai/ha",0%
same,pest or weed control at 31 g/ha,"[8]; Panicum dichotomiflorum, post-emergence, Postemergence, 31 g ai/ha",0%
same,pest or weed control at 62 g/ha,"[8]; Panicum dichotomiflorum, post-emergence, Postemergence, 62 g ai/ha",0%
same,pest or weed control at 125 g/ha,"[8]; Panicum dichotomiflorum, post-emergence, Postemergence, 125 g ai/ha",60%
same,pest or weed control at 250 g/ha,"[8]; Panicum dichotomiflorum, post-emergence, Postemergence, 250 g ai/ha",30%
same,pest or weed control at 500 g/ha,"[8]; Panicum dichotomiflorum, post-emergence, Postemergence, 500 g ai/ha",65%
same,"Panicum, Fall plant response rating",[8]; 31 g ai/ha,0
same,"Panicum, Fall plant response rating",[8]; 62 g ai/ha,0
same,"Panicum, Fall plant response rating",[8]; 125 g ai/ha,0
same,"Panicum, Fall plant response rating",[8]; 250 g ai/ha,0
same,"Panicum, Fall plant response rating",[8]; 500 g ai/ha,0
same,Arrowleaf Sida plant response rating,"[9]; 31 g ai/ha, scale 0 to 100",25
same,Arrowleaf Sida plant response rating,"[9]; 62 g ai/ha, scale 0 to 100",35
same,Arrowleaf Sida plant response rating,"[9]; 125 g ai/ha, scale 0 to 100",90
same,Arrowleaf Sida plant response rating,"[9]; 250 g ai/ha, scale 0 to 100",95
same,Arrowleaf Sida plant response rating,"[9]; 500 g ai/ha, scale 0 to 100",100
same,pest or weed control at 31 g/ha,"[9]; Sida rhombifolia, post-emergence, Postemergence, 31 g ai/ha, scale 0 to 100",95%
same,pest or weed control at 62 g/ha,"[9]; Sida rhombifolia, post-emergence, Postemergence, 62 g ai/ha, scale 0 to 100",98%
same,pest or weed control at 125 g/ha,"[9]; Sida rhombifolia, post-emergence, Postemergence, 125 g ai/ha, scale 0 to 100",98%
same,pest or weed control at 250 g/ha,"[9]; Sida rhombifolia, post-emergence, Postemergence, 250 g ai/ha, scale 0 to 100",98%
same,pest or weed control at 500 g/ha,"[9]; Sida rhombifolia, post-emergence, Postemergence, 500 g ai/ha, scale 0 to 100 (0 no effect, 100 complete control)",100%
same,plant injury at 31 g/ha,"soybean (Glycine max); Glycine max, post-emergence, Postemergence, 31 g ai/ha",0%
same,plant injury at 62 g/ha,"soybean (Glycine max); Glycine max, post-emergence, Postemergence, 62 g ai/ha",0%
same,plant injury at 125 g/ha,"soybean (Glycine max); Glycine max, post-emergence, Postemergence, 125 g ai/ha",0%
same,plant injury at 250 g/ha,"soybean (Glycine max); Glycine max, post-emergence, Postemergence, 250 g ai/ha",0%
same,plant injury at 500 g/ha,"soybean (Glycine max); Glycine max, post-emergence, Postemergence, 500 g ai/ha",0%
same,Soybean plant response rating,soybean (Glycine max); 31 g ai/ha,0
same,Soybean plant response rating,soybean (Glycine max); 62 g ai/ha,0
same,Soybean plant response rating,soybean (Glycine max); 125 g ai/ha,0
same,Soybean plant response rating,soybean (Glycine max); 250 g ai/ha,0
same,Soybean plant response rating,soybean (Glycine max); 500 g ai/ha,0
same,pest or weed control at 31 g/ha,"[10]; Amaranthus palmeri, post-emergence, Postemergence, 31 g ai/ha",70%
same,pest or weed control at 62 g/ha,"[10]; Amaranthus palmeri, post-emergence, Postemergence, 62 g ai/ha",70%
same,pest or weed control at 125 g/ha,"[10]; Amaranthus palmeri, post-emergence, Postemergence, 125 g ai/ha",90%
same,pest or weed control at 250 g/ha,"[10]; Amaranthus palmeri, post-emergence, Postemergence, 250 g ai/ha",90%
same,pest or weed control at 500 g/ha,"[10]; Amaranthus palmeri, post-emergence, Postemergence, 500 g ai/ha",100%
same,"Pigweed, Palmer plant response rating",[10]; 31 g ai/ha,0
same,"Pigweed, Palmer plant response rating",[10]; 62 g ai/ha,0
same,"Pigweed, Palmer plant response rating",[10]; 125 g ai/ha,0
same,"Pigweed, Palmer plant response rating",[10]; 250 g ai/ha,0
same,"Pigweed, Palmer plant response rating",[10]; 500 g ai/ha,0
